{
  "source": "patent US20130156932A1",
  "about": "“Method of increasing the milk and/or meat quantity of silage-fed animals” (BASF SE, priority 2007, published 2013)",
  "format_in_all_cases": "in vivo, Zea mays (maize)",
  "key": {"corn [1]": {"system": "corn", "assay": "Corn silage strip trials Maryland 2006: NIRS forage quality and MILK 2006 calculated milk production", "experimental": "(§1) Field trials were conducted as strip trials in farm fields in 2006 and 2008. A part of the field was treated with pyraclostrobin applied as Headline® whereas another part was left untreated. Headline® was applied at tassel emergence with 0.44 L/ha (110 g pyraclostrobin per ha) by aerial or ground application with a high clearance sprayer. Total spray volume was 93.5 to 187 L/ha for ground application and 18.7 to 46.7 L/ha for aerial application, respectively. Water was used as a carrier to prepare the spray mixture.\n(§2) Trials were harvested using a commercial forage harvester when the corn crop reached a dry matter content of about 30 to 40%. The treated and untreated area of the field was harvested separately to gain total biomass yield (ton/acre). Subsequently, the harvested plant material was used for producing silage.\n(§3) Forage samples from the harvested plants were taken from both the treated and untreated areas of the field. Samples were taken from the harvested material in the forage wagon following chopping with the commercial harvester. Multiple forage samples were taken for each of both treatments manually during harvesting in each of the trials, mixed in a larger container, and a subsample of 1.3 to 2.25 kg was taken. The subsamples were placed in plastic bags, sealed, cooled, and shipped immediately to Agsource Soil and Forage Laboratory, 106 North Cecil Street, Bonduel Wis. 54107, USA for Near Infrared Reflectance Spectroscopy (NIRS) analysis.\nTypically, samples for NIRS analysis are first dried at 55 to 65° C. for 24 h to 48 h prior to analysis. A representative subsample thereof is then dried at 105° C. for another 12 h to 24 h to evaluate the dry matter content of the samples. Subsequently, the remaining sample is grinded and homogenized and again a representative subsample is used for the NIRS analysis. The NIRS analysis procedure uses a commercially available calibration to estimate the values for each quality parameter based on the spectral reflectance information gained. The calibrations are based on the near infra red reflectance spectra of samples with known quality data. The comparison of the spectra of the samples with unknown quality data with the spectra of the known samples allows calculating estimates for each quality parameter of interest.\nNIRS analysis provided dry matter, crude protein, Acid Detergent Fibre (ADF), Neutral Detergent Fibre (NDF), and starch data. Calculations were included for moisture, adjusted crude protein, Total Digestible Nutrients (TDN), Net Energy for Lactation (NEL), Net Energy for Gain (NEG) and protein solubility.\nThe information was then entered into the MILK 2006 University of Wisconsin Corn Silage evaluation system. Calculations of the milk production, energy content and digestibility per ton of corn biomass were carried out using a calculation method described in:\na) Schwab, E. C., and R. D. Shaver. 2001: “Evaluation of corn silage nutritive value using MILK2000” (pages 21-24) in Proc. of 25th Forage Production and Use Symposium. WI Forage Council Annual Mtg. Eau Claire, Wis.\nb) Schwab, E. C., R. D. Shaver. J. G. Lauer, and J. G. Coors. 2003: “Estimating silage energy value and milk yield to rank corn hybrids”. J. Anim. Feed Sci. Technol. 109: 1-18. as well as in\nc) Undersander, D. J., W. T. Howard, and R. D. Shaver. 1993: “Milk per acre spreadsheet for combining yield and quality into a single term”. J. Prod. Ag. 6: 231 235.\nIn 2006 a total of 16 strip trials were conducted in Queen Ann County, Md. Trial setup, treatments, application, harvesting, sampling and quality analysis including calculation of milk production per ton and per acre followed the procedure described before."}, "corn [2]": {"system": "corn", "assay": "Corn silage strip trials Wisconsin 2006: NIRS forage quality and MILK 2006 calculated milk production", "experimental": "as §1, §2, §3\nTypically, samples for NIRS analysis are first dried at 55 to 65° C. for 24 h to 48 h prior to analysis. A representative subsample thereof is then dried at 105° C. for another 12 h to 24 h to evaluate the dry matter content of the samples. Subsequently, the remaining sample is grinded and homogenized and again a representative subsample is used for the NIRS analysis. The NIRS analysis procedure uses a commercially available calibration to estimate the values for each quality parameter based on the spectral reflectance information gained. […]"}, "corn [3]": {"system": "corn", "assay": "Corn silage strip trials New York 2006: NIRS forage quality and MILK 2006 calculated milk production", "conditions": "New York 2006, pyraclostrobin vs untreated", "experimental": "as §1, §2\n(§4) Forage samples from the harvested plants were taken from both the treated and untreated areas of the field. Samples were taken from the harvested material in the forage wagon following chopping with the commercial harvester. Multiple forage samples were taken for each of both treatments manually during harvesting in each of the trials, mixed in a larger container, and a subsample of 1.3 to 2.25 kg was taken. The subsamples were placed in plastic bags, sealed, cooled, and shipped immediately to Agsource Soil and Forage Laboratory, 106 North Cecil Street, Bonduel Wis. […]"}, "corn hybrid varieties": {"system": "corn hybrid varieties", "assay": "Field trial Wisconsin 2008 with eight corn hybrids: calculated milk production per ton of harvested biomass", "experimental": "as §1, §2, §4"}, "[4]": {"conditions": "Maryland 2006, pyraclostrobin vs untreated"}, "[5]": {"conditions": "Wisconsin 2006, pyraclostrobin vs untreated"}},
  "data": [
    {"smiles": "COC(=O)N(OC)c1ccccc1COc1ccn(-c2ccc(Cl)cc2)n1", "note": "[Pyraclostrobin, pyraclostrobin]", "values": [
      {"measurement": "total digestible nutrients as percent of dry matter (TDN % of DM)", "setting": "corn [1]; Maryland 2006, average of 16 strip trials, 110 g pyraclostrobin per ha", "value": "70.0 % of DM"},
      {"measurement": "crude protein content (% CP)", "setting": "corn [1]; Maryland 2006, average of 16 strip trials, Headline at tassel emergence, 110 g pyraclostrobin per ha", "value": 7.1, "unit": "%"},
      {"measurement": "% CP, % Difference to Untreated", "setting": "corn [1]; [4]", "value": "+6.0%"},
      {"measurement": "% NDF, % Difference to Untreated", "setting": "corn [1]; [4]", "value": "−4.8", "unit": "%"},
      {"measurement": "% NDFD, % Difference to Untreated", "setting": "corn [1]; [4]", "value": "+3.9%"},
      {"measurement": "Milk (kg/t), % Difference to Untreated", "setting": "corn [1]; [4]", "value": "+5.9%"},
      {"measurement": "TDN % of DM, % Difference to Untreated", "setting": "corn [1]; [4]", "value": "+3.6%"},
      {"measurement": "crude protein content (% CP)", "setting": "corn [2]; Wisconsin 2006, average of 7 strip trials, 110 g pyraclostrobin per ha", "value": 7.5, "unit": "%"},
      {"measurement": "% CP, % Difference to Untreated", "setting": "corn [2]; [5]", "value": "+4.2%"},
      {"measurement": "Milk (kg/t), % Difference to Untreated", "setting": "corn [2]; [5]", "value": "+14.0%"},
      {"measurement": "% CP, % Difference to Untreated", "setting": "corn [3]", "value": "+6.0%"},
      {"measurement": "% Dry Matter, % Difference to Untreated", "setting": "corn [3]", "value": "−2.2", "unit": "%"},
      {"measurement": "Calculated milk production, Milk (kg/t)", "setting": "corn hybrid varieties; Example 4.6, hybrid DS93VT3, Wisconsin 2008", "value": 1600, "unit": "kg/t"},
      {"measurement": "milk production per ton of harvested corn biomass used to produce silage", "setting": "corn hybrid varieties; across the eight tested different corn hybrids, result in words", "value": "improves the milk production"}
    ]}
  ]
}
